{"source": "patent US20240279220A1", "about": "“INDOLE COMPOUNDS AND METHODS OF USE” (Genzyme Corporation, priority 2021, published 2024)", "tested_on": "NBD1/3D", "experiment": "Aggregation analysis using differential static light scattering (DSLS), NBD1 thermal stability", "format": "binding, Human", "conditions": "ΔTagg versus DMSO control; compound at 100 μM", "procedure,_shortened": "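Thermal stabilisation reported as ΔTagg, i.e. aggregation temperature relative to averaged DMSO wells. Tagg came from the inflection of differential static light scattering imaged 25–70 °C while NBD1 (0.2 mg/ml, Tris pH 7.6 buffer containing ATP, MgCl2, DTT, glycerol) was ramped 1 °C/min.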", "data": [{"smiles": "COCCOCCOC(C)(c1cccc(CCC(=O)O)c1)c1cnc(-c2cc(Oc3c(F)cc4[nH]ccc4c3C)ccc2F)[nH]1", "note": "(stereo not drawn) [Example 233, 3-(3-(1-(2-(2-Fluoro-5-((6-fluoro-4-methyl-1H-indol-5-yl)oxy)phenyl)-1H-imidazol-5-yl)-1-(2-(2-methoxyethoxy)ethoxy)ethyl)phenyl)propanoic acid]", "values": [{"measurement": "DSLS NBD1/3D Human Stability delta-T (° C.) @ 100 (μM)", "value": "B (B: 5-10° C.)"}]}, {"smiles": "COCCOC(C)(c1cccc(CCC(=O)O)c1)c1cnc(-c2cc(Oc3c(F)c(F)c4[nH]ccc4c3C)ccc2F)[nH]1", "note": "(stereo not drawn) [Example 234, 3-(3-(1-(2-(5-((6,7-difluoro-4-methyl-1H-indol-5-yl)oxy)-2-fluorophenyl)-1H-imidazol-5-yl)-1-(2-methoxyethoxy)ethyl)phenyl) propanoic acid]", "values": [{"measurement": "DSLS NBD1/3D Human Stability delta-T (° C.) @ 100 (μM)", "value": "B (B: 5-10° C.)"}]}, {"smiles": "Cc1c(Oc2ccc(F)c(-c3ncc(C(OCCO)c4cccc(CCC(=O)O)c4)[nH]3)c2)c(F)cc2[nH]ccc12", "note": "(stereo not drawn) [Example 235, 3-(3-((2-(2-fluoro-5-((6-fluoro-4-methyl-1H-indol-5-yl)oxy)phenyl)-1H-imidazol-5-yl)(2-hydroxyethoxy)methyl)phenyl) propanoic acid]", "values": [{"measurement": "DSLS NBD1/3D Human Stability delta-T (° C.) @ 100 (μM)", "value": "B (B: 5-10° C.)"}]}, {"smiles": "COCCOC(c1cccc(CCC(=O)O)c1)c1cnc(-c2cc(Oc3c(F)cc4[nH]ccc4c3C)ccc2F)[nH]1", "note": "(stereo not drawn) [Example 236, 3-(3-((2-(2-fluoro-5-((6-fluoro-4-methyl-1H-indol-5-yl)oxy)phenyl)-1H-imidazol-5-yl)(2-methoxyethoxy)methyl)phenyl) propanoic acid]", "values": [{"measurement": "DSLS NBD1/3D Human Stability delta-T (° C.) @ 100 (μM)", "value": "B (B: 5-10° C.)"}]}, {"smiles": "COC(c1cccc(CCC(=O)O)c1)c1cnc(-c2cc(Oc3c(F)cc4[nH]ccc4c3C)ccc2F)[nH]1", "note": "(stereo not drawn) [Example 237, 3-(3-((2-(2-fluoro-5-((6-fluoro-4-methyl-1H-indol-5-yl)oxy)phenyl)-1H-imidazol-5-yl)(methoxy)methyl)phenyl) propanoic acid]", "values": [{"measurement": "DSLS NBD1/3D Human Stability delta-T (° C.) @ 100 (μM)", "value": "B (B: 5-10° C.)"}]}, {"smiles": "Cc1c(Oc2ccc(F)c(-c3nnc(Cc4cccc(CCC(=O)O)c4)[nH]3)c2)c(F)cc2[nH]ccc12", "note": "[Example 238, 3-(3-((5-(2-Fluoro-5-((6-fluoro-4-methyl-1H-indol-5-yl)oxy)phenyl)-4H-1,2,4-triazol-3-yl)methyl)phenyl)propanoic acid]", "values": [{"measurement": "DSLS NBD1/3D Human Stability delta-T (° C.) @ 100 (μM)", "value": "B (B: 5-10° C.)"}]}, {"smiles": "O=C(O)CCc1cccc(Cc2nnc(-c3cc(Oc4c(F)cc5[nH]ccc5c4Cl)ccc3F)[nH]2)c1", "note": "[Example 239, 3-(3-((5-(5-((4-chloro-6-fluoro-1H-indol-5-yl)oxy)-2-fluorophenyl)-4H-1,2,4-triazol-3-yl)methyl)phenyl) propanoic acid]", "values": [{"measurement": "DSLS NBD1/3D Human Stability delta-T (° C.) @ 100 (μM)", "value": "C (C: ≤5° C.)"}]}, {"smiles": "O=C(O)CCc1cccc(Cc2nnc(-c3cc(Oc4c(F)cc5[nH]ccc5c4F)ccc3F)[nH]2)c1", "note": "[Example 240, 3-(3-((5-(5-((4,6-difluoro-1H-indol-5-yl)oxy)-2-fluorophenyl)-4H-1,2,4-triazol-3-yl)methyl)phenyl) propanoic acid]", "values": [{"measurement": "DSLS NBD1/3D Human Stability delta-T (° C.) @ 100 (μM)", "value": "B (B: 5-10° C.)"}]}, {"smiles": "Cc1c(Oc2ccc(F)c(-c3nc(Cc4cccc(CCC(=O)O)c4)n(C)n3)c2)c(F)cc2[nH]ccc12", "note": "[Example 241, 3-(3-((3-(2-Fluoro-5-((6-fluoro-4-methyl-1H-indol-5-yl)oxy)phenyl)-1-methyl-1H-1,2,4-triazol-5-yl)methyl)phenyl)propanoic acid]", "values": [{"measurement": "DSLS NBD1/3D Human Stability delta-T (° C.) @ 100 (μM)", "value": "B (B: 5-10° C.)"}]}, {"smiles": "Cc1c(Oc2ccc(F)c(-c3nc(Cc4cccc(CCC(=O)O)c4)nn3C)c2)c(F)cc2[nH]ccc12", "note": "[Example 242, 3-(3-((5-(2-Fluoro-5-((6-fluoro-4-methyl-1H-indol-5-yl)oxy)phenyl)-1-methyl-1H-1,2,4-triazol-3-yl)methyl)phenyl)propanoic acid]", "values": [{"measurement": "DSLS NBD1/3D Human Stability delta-T (° C.) @ 100 (μM)", "value": "B (B: 5-10° C.)"}]}, {"smiles": "Cc1c(Oc2ccc(F)c(-c3nnc(Cc4cccc5c4CC(C(=O)O)C5)[nH]3)c2)c(F)cc2[nH]ccc12", "note": "(stereo not drawn) [Example 244, 4-((5-(2-Fluoro-5-((6-fluoro-4-methyl-1H-indol-5-yl)oxy)phenyl)-4H-1,2,4-triazol-3-yl)methyl)-2,3-dihydro-1H-indene-2-carboxylic acid]", "values": [{"measurement": "DSLS NBD1/3D Human Stability delta-T (° C.) @ 100 (μM)", "value": "C (C: ≤5° C.)"}]}, {"smiles": "Cc1c(Oc2ccc(F)c(-c3nnc(Cc4ccc5c(c4)CC(C(=O)O)C5)[nH]3)c2)c(F)cc2[nH]ccc12", "note": "(stereo not drawn) [Example 245, 5-((5-(2-Fluoro-5-((6-fluoro-4-methyl-1H-indol-5-yl)oxy)phenyl)-4H-1,2,4-triazol-3-yl)methyl)-2,3-dihydro-1H-indene-2-carboxylic acid]", "values": [{"measurement": "DSLS NBD1/3D Human Stability delta-T (° C.) @ 100 (μM)", "value": "C (C: ≤5° C.)"}]}, {"smiles": "Cc1c(Oc2ccc(F)c(-c3nnc(Cc4ccc5[nH]c(C(=O)O)cc5c4)[nH]3)c2)c(F)cc2[nH]ccc12", "note": "[Example 246, 5-((5-(2-fluoro-5-((6-fluoro-4-methyl-1H-indol-5-yl)oxy)phenyl)-4H-1,2,4-triazol-3-yl)methyl)-1H-indole-2-carboxylic acid]", "values": [{"measurement": "DSLS NBD1/3D Human Stability delta-T (° C.) @ 100 (μM)", "value": "B (B: 5-10° C.)"}]}, {"smiles": "Cc1c(Oc2ccc(F)c(-c3nnc(Cc4cccc(C5CC(C(=O)O)C5)c4)[nH]3)c2)c(F)cc2[nH]ccc12", "note": "(stereo not drawn) [Example 247, 3-(3-((5-(2-Fluoro-5-((6-fluoro-4-methyl-1H-indol-5-yl)oxy)phenyl)-4H-1,2,4-triazol-3-yl)methyl)phenyl)cyclobutane-1-carboxylic acid]", "values": [{"measurement": "DSLS NBD1/3D Human Stability delta-T (° C.) @ 100 (μM)", "value": "B (B: 5-10° C.)"}]}, {"smiles": "Cc1c(Oc2ccc(F)c(-c3nnc(Cc4cccc(C5(F)CC(C(=O)O)C5)c4)[nH]3)c2)c(F)cc2[nH]ccc12", "note": "(stereo not drawn) [Example 248, 3-Fluoro-3-(3-((5-(2-fluoro-5-((6-fluoro-4-methyl-1H-indol-5-yl)oxy)phenyl)-4H-1,2,4-triazol-3-yl)methyl)phenyl)cyclobutane-1-carboxylic acid]", "values": [{"measurement": "DSLS NBD1/3D Human Stability delta-T (° C.) @ 100 (μM)", "value": "C (C: ≤5° C.)"}]}, {"smiles": "Cc1c(Oc2ccc(F)c(-c3nnc(Cc4cccc(N5CC(C(=O)O)C5)c4)[nH]3)c2)c(F)cc2[nH]ccc12", "note": "[Example 249, 1-(3-((5-(2-Fluoro-5-((6-fluoro-4-methyl-1H-indol-5-yl)oxy)phenyl)-4H-1,2,4-triazol-3-yl)methyl)phenyl)azetidine-3-carboxylic acid]", "values": [{"measurement": "DSLS NBD1/3D Human Stability delta-T (° C.) @ 100 (μM)", "value": "C (C: ≤5° C.)"}]}, {"smiles": "CC(O)(c1cccc(CCC(=O)O)c1)c1nnc(-c2cc(Oc3c(F)cc4[nH]ccc4c3F)ccc2F)[nH]1", "note": "(stereo not drawn) [Example 250, 3-(3-(1-(5-(5-((4,6-Difluoro-1H-indol-5-yl)oxy)-2-fluorophenyl)-4H-1,2,4-triazol-3-yl)-1-hydroxyethyl)phenyl)propanoic acid]", "values": [{"measurement": "DSLS NBD1/3D Human Stability delta-T (° C.) @ 100 (μM)", "value": "B (B: 5-10° C.)"}]}, {"smiles": "Cc1c(Oc2ccc(F)c(-c3nnc(C(C)(O)c4cccc(CCC(=O)O)c4)[nH]3)c2)c(F)cc2[nH]ccc12", "note": "(stereo not drawn) [Example 251, 3-(3-(1-(5-(2-fluoro-5-((6-fluoro-4-methyl-1H-indol-5-yl)oxy)phenyl)-4H-1,2,4-triazol-3-yl)-1-hydroxyethyl)phenyl)propanoic acid]", "values": [{"measurement": "DSLS NBD1/3D Human Stability delta-T (° C.) @ 100 (μM)", "value": "B (B: 5-10° C.)"}]}, {"smiles": "O=C(O)CCCCC#Cc1ccc(Cc2nnc(-c3cccc(Oc4ccc5[nH]ccc5c4)c3)[nH]2)cc1", "note": "[Example 253, 7-(4-((5-(3-((1H-Indol-5-yl)oxy)phenyl)-4H-1,2,4-triazol-3-yl)methyl)phenyl)hept-6-ynoic acid]", "values": [{"measurement": "DSLS NBD1/3D Human Stability delta-T (° C.) @ 100 (μM)", "value": "C (C: ≤5° C.)"}]}, {"smiles": "O=C(O)CCCCCCc1ccc(Cc2nnc(-c3cccc(Oc4ccc5[nH]ccc5c4)c3)[nH]2)cc1", "note": "[Example 254, 7-(4-((5-(3-((1H-Indol-5-yl)oxy)phenyl)-4H-1,2,4-triazol-3-yl)methyl)phenyl)heptanoic acid]", "values": [{"measurement": "DSLS NBD1/3D Human Stability delta-T (° C.) @ 100 (μM)", "value": "C (C: ≤5° C.)"}]}, {"smiles": "O=C(O)CCCCCc1cccc(Cc2nnc(-c3cccc(Oc4ccc5[nH]ccc5c4)c3)[nH]2)c1", "note": "[Example 255, 6-(3-((5-(3-((1H-indol-5-yl)oxy)phenyl)-4H-1,2,4-triazol-3-yl)methyl)phenyl)hexanoic acid]", "values": [{"measurement": "DSLS NBD1/3D Human Stability delta-T (° C.) @ 100 (μM)", "value": "C (C: ≤5° C.)"}]}, {"smiles": "O=C(O)CCCCCCc1cccc(Cc2nnc(-c3cccc(Oc4ccc5[nH]ccc5c4)c3)[nH]2)c1", "note": "[Example 256, 7-(3-((5-(3-((1H-indol-5-yl)oxy)phenyl)-4H-1,2,4-triazol-3-yl)methyl)phenyl)heptanoic acid]", "values": [{"measurement": "DSLS NBD1/3D Human Stability delta-T (° C.) @ 100 (μM)", "value": "C (C: ≤5° C.)"}]}, {"smiles": "O=C(O)CCCCc1cccc(Cc2nnc(-c3cccc(Oc4cc5cc[nH]c5cn4)c3)[nH]2)c1", "note": "[Example 257, 5-(3-((5-(3-((1H-pyrrolo[2,3-c]pyridin-5-yl)oxy)phenyl)-4H-1,2,4-triazol-3-yl)methyl)phenyl)pentanoic acid]", "values": [{"measurement": "DSLS NBD1/3D Human Stability delta-T (° C.) @ 100 (μM)", "value": "C (C: ≤5° C.)"}]}, {"smiles": "O=C(O)CCCCc1cccc(Cc2nnc(-c3cccc(Oc4ccc5[nH]ccc5c4)c3)[nH]2)c1", "note": "[Example 258, 5-(3-((5-(3-((1H-indol-5-yl)oxy)phenyl)-4H-1,2,4-triazol-3-yl)methyl)phenyl)pentanoic acid]", "values": [{"measurement": "DSLS NBD1/3D Human Stability delta-T (° C.) @ 100 (μM)", "value": "C (C: ≤5° C.)"}]}, {"smiles": "O=C(O)CCCc1cccc(Cc2nnc(-c3cccc(Oc4ccc5[nH]ccc5c4)c3)[nH]2)c1", "note": "[Example 259, 4-(3-((5-(3-((1H-Indol-5-yl)oxy)phenyl)-4H-1,2,4-triazol-3-yl)methyl)phenyl)butanoic acid]", "values": [{"measurement": "DSLS NBD1/3D Human Stability delta-T (° C.) @ 100 (μM)", "value": "B (B: 5-10° C.)"}]}, {"smiles": "c1cc(CCCCc2nnn[nH]2)cc(Cc2nnc(-c3cccc(Oc4ccc5[nH]ccc5c4)c3)[nH]2)c1", "note": "[Example 260, 5-(3-(5-(3-(4-(1H-Tetrazol-5-yl)butyl)benzyl)-4H-1,2,4-triazol-3-yl)phenoxy)-1H-indole]", "values": [{"measurement": "DSLS NBD1/3D Human Stability delta-T (° C.) @ 100 (μM)", "value": "C (C: ≤5° C.)"}]}, {"smiles": "O=C(O)CSc1cccc(Cc2nnc(-c3cccc(Oc4c(F)cc5[nH]ccc5c4F)c3)[nH]2)c1", "note": "[Example 261, 2-((3-((5-(3-((4,6-Difluoro-1H-indol-5-yl)oxy)phenyl)-4H-1,2,4-triazol-3-yl)methyl)phenyl)thio)acetic acid]", "values": [{"measurement": "DSLS NBD1/3D Human Stability delta-T (° C.) @ 100 (μM)", "value": "C (C: ≤5° C.)"}]}]}
